Several values for one entry are separate records, joined by “and”; a condition that tells them apart may be missing. Equal values may be shown once. Read-outs that look alike come from different tables or passages of the source.
What was measured:
[1] = biological target: Recombinant ROCK1 (amino acids 1-535) (Homo sapiens (Human), UniProt Q13464); test: Z′-Lyte kinase assay, ROCK1; type: biochemical; details: for inhibition at 3 µM: 3 μM compound; for inhibition at 3 µM / inhibition at 0.5 µM: read-out: ROCK1 % inh. @ [conc]; for inhibition at 0.5 µM: 0.5 μM compound
Chain of Recombinant ROCK1 (amino acids 1-535) (Q13464 1-535): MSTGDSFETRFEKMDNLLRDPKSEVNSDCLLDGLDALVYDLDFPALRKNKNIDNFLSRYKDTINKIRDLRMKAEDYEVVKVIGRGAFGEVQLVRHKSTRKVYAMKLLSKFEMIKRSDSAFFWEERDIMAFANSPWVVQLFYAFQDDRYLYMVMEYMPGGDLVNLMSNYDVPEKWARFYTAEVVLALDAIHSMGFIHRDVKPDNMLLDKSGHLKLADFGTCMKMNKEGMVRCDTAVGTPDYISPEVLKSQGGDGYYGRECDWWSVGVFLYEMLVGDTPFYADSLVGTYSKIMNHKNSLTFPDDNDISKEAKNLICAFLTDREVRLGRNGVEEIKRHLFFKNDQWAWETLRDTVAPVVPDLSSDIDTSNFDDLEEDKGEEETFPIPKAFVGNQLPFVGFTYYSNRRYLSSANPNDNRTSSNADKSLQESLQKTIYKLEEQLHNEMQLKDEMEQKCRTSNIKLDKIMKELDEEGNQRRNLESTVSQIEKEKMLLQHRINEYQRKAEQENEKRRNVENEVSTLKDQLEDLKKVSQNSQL
Protocol: Determination of Compound's ROCK Inhibitory Activity In Vitro (Z'Lyte Assay).
Recombinant ROCK1 (amino acids 1-535) and ROCK2 (amino acids 1-552) proteins were purchased from ThermoFisher Scientific. Compound's activities were measured by Z′-lyte kinase kit (ThermoFisher Scientific) and IC50 was calculated
In vitro activities for the compounds were measured with Z′-lyte kinase kit (ThermoFisher Scientific). The percent inhibition rate was calculated by normalizing the kinase activity value obtained with 1 μM compound treatment against DMSO control value and then applied to the formula, [1-(compound/DMSO)]×100%. IC50s were calculated using the nonlinear regression curve fit function of the GraphPad Prism software with kinase activities data measured with 9 points 2-fold serial dilution of compounds treatment. In cell pMLC IC50s were calculated with data obtained from A7R5 cell experiments. A7R5 cells were treated with 9 points 2-fold serial dilution of compounds and ppMlc (T18/S19) levels were determined to calculate cellular IC50 values of the compounds using the nonlinear regression curve fit function of the GraphPad Prism software. NIH3T3 cells stably expressing ACTA2-promoter-driven-luciferase were applied to measure ROCK compounds functional IC50s in cells. Cells were plated in 96 well plates to confluence and treated with 9 points serial dilution of compounds in combination with TGFβ1 for 24 hr. Luciferase activities were measured and compound's IC50s were calculated using the nonlinear regression curve fit function of the GraphPad Prism software.

[2] = biological target: Recombinant ROCK2 (amino acids 1-552) (Homo sapiens (Human), UniProt O75116); test: Z′-Lyte kinase assay, ROCK2; type: biochemical; details: for inhibition at 3 µM: 3 μM compound; for inhibition at 3 µM / inhibition at 0.5 µM: read-out: ROCK2 % inh. @ [conc]; for inhibition at 0.5 µM: 0.5 μM compound
Chain of Recombinant ROCK2 (amino acids 1-552) (O75116 1-552): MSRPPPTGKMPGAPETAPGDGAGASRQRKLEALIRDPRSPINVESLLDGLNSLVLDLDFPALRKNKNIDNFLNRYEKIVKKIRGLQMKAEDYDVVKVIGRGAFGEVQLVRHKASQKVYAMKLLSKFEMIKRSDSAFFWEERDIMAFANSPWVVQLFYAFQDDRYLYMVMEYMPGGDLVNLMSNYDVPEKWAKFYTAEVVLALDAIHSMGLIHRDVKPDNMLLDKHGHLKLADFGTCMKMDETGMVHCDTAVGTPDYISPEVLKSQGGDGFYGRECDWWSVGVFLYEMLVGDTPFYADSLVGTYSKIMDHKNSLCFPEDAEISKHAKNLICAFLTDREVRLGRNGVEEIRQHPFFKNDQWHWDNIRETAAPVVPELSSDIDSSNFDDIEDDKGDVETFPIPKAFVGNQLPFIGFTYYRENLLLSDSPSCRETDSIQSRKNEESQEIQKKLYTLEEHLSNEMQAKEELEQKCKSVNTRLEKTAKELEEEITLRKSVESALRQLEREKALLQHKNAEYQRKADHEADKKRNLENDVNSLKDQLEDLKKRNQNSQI
Summary of the method: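 Recombinant human ROCK1 (aa 1-535) or ROCK2 (aa 1-552) activity read by Z′-Lyte kinase assay. Percent inhibition at 1 μM compound was normalized to DMSO control; IC50 from 9-point 2-fold serial dilutions by nonlinear regression.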

[3] = system: ppMlc (T18/S19) levels in A7R5 cells; test: A7R5 in-cell ELISA (pMLC); type: cell-based, Rat; details: for IC50 / inhibition at 10 µM / inhibition at 1 µM: Rattus norvegicus, A7R5, A7R5 cells; for inhibition at 10 µM / inhibition at 1 µM: read-out: pMLC % inh A7R5 @ [conc]; for inhibition at 1 µM: 1 μM compound
Summary of the method: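 A7R5 rat aortic smooth muscle cells seeded 24 h, then treated 90 min with a 9-point 2-fold compound dilution series. Fixed cells probed for ppMlc (T18/S19) by colorimetric in-cell ELISA; cellular IC50 from nonlinear regression curve fit.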

[4] = 9 points 2-fold serial dilution

| Structure (SMILES) | inhibition at 3 µM [1] [%] | IC50 [1, 4] [nM] | inhibition at 3 µM [2] [%] | IC50 [2, 4] [nM] | IC50 ([3]; ppMlc (T18/S19)) [nM] | inhibition at 10 µM ([3]; 10 μM compound) [%] | other results |
| --- | --- | --- | --- | --- | --- | --- | --- |
| CCC1CCN(c2nccc(Nc3ccc4[nH]ncc4c3)n2)CCN1 (stereo not drawn) [Example 60, N-(2-(5-ethyl-1,4-diazepan-1-yl)pyrimidin-4-yl)-1H-indazol-5-amine] | 100 | 660 | 100 | 450 | 3440 |  |  |
| c1ccc(C2CN(c3nccc(Nc4ccc5[nH]ncc5c4)n3)CCCN2)cc1 (stereo not drawn) [Example 64, N-(2-(3-phenyl-1,4-diazepan-1-yl)pyrimidin-4-yl)-1H-indazol-5-amine] |  | 325 |  | 240 | 1040 | 63.9 |  |
| CCCC1CNCCN1c1nccc(Nc2ccc3[nH]ncc3c2)n1 (stereo not drawn) [Example 69, N-(2-(2-propylpiperazin-1-yl)pyrimidin-4-yl)-1H-indazol-5-amine] |  |  |  |  |  |  | inhibition at 0.5 µM [1]: 67%; inhibition at 0.5 µM [2]: 52%; inhibition at 1 µM [3]: 19.3% |
| Clc1cnc(N2CCNCC2)nc1Nc1ccc2[nH]ncc2c1 [Example 178, N-(5-chloro-2-(piperazin-1-yl)pyrimidin-4-yl)-1H-indazol-5-amine] |  | 388 |  | 159 | 706 | 47.5 |  |
| CCC1CNCCN1c1ncc(Cl)c(Nc2ccc3[nH]ncc3c2)n1 (stereo not drawn) [Example 187, N-(5-chloro-2-(2-ethylpiperazin-1-yl)pyrimidin-4-yl)-1H-indazol-5-amine] |  | 58 |  | 111 | 665 | 59.8 |  |
| CC1CN(c2ncc(Cl)c(Nc3ccc4[nH]ncc4c3)n2)CC(C)N1 (stereo not drawn) [Example 189, N-(5-chloro-2-(3,5-dimethylpiperazin-1-yl)pyrimidin-4-yl)-1H-indazol-5-amine] |  |  |  |  | 637 | 33.4 | inhibition at 0.5 µM [1]: 18%; inhibition at 0.5 µM [2]: 14% |
| Cc1cnc(N2CCNCC(C)C2)nc1Nc1ccc2[nH]ncc2c1 (stereo not drawn) [Example 196, N-(5-methyl-2-(6-methyl-1,4-diazepan-1-yl)pyrimidin-4-yl)-1H-indazol-5-amine] |  |  |  |  |  |  | inhibition at 0.5 µM [1]: 37%; inhibition at 0.5 µM [2]: 39%; inhibition at 1 µM [3]: 17.6% |
| c1cc(Nc2ccc3[nH]ncc3c2)nc(N2CC3CNCC3C2)n1 (stereo not drawn) [Example 210, N-(2-(hexahydropyrrolo[3,4-c]pyrrol-2(1H)-yl)pyrimidin-4-yl)-1H-indazol-5-amine] | 41.9 |  | 0 |  | 589 | 73.4 |  |
| N[C@@H]1CCN(c2nccc(Nc3ccc4[nH]ncc4c3)n2)C1 [Example 231, (R)—N-(2-(3-aminopyrrolidin-1-yl)pyrimidin-4-yl)-1H-indazol-5-amine] |  |  |  |  |  |  | IC50 [1]: > 10000 nM; IC50 [2]: 276 nM; pMLC % inh A7R5 @ [conc] ([3]; A7R5 cells, 10 μM compound): 94.24, % and 63.4%; IC50 [3]: 335 nM |
| CC1CNCCN1c1nccc(Nc2ccc3[nH]ncc3c2)n1 (stereo not drawn) [Example 232, N-(2-(2-methylpiperazin-1-yl)pyrimidin-4-yl)-1H-indazol-5-amine] | 100 | 75 | 104 | 22 | 129 | 93 |  |
| COc1cccc(CNC2CCCN(c3nccc(Nc4ccc5[nH]ncc5c4)n3)C2)c1 (stereo not drawn) [Example 233, N-(2-(3-((3-methoxybenzyl)amino)piperidin-1-yl)pyrimidin-4-yl)-1H-indazol-5-amine] |  |  |  |  |  | 95.1 | IC50 [1]: > 10000 nM; IC50 [2]: 217 nM; IC50 [3]: 712 nM |
| CC1CNCCCN1c1nccc(Nc2ccc3[nH]ncc3c2)n1 (stereo not drawn) [Example 238, N-(2-(2-methyl-1,4-diazepan-1-yl)pyrimidin-4-yl)-1H-indazol-5-amine] |  | 55 |  | 17 | 215 | 70 |  |
| Cc1cc(Nc2ccc(-c3ccncc3)cc2)nc(N2CCCNC(C)C2)n1 (stereo not drawn) [Example 247, 6-methyl-2-(3-methyl-1,4-diazepan-1-yl)-N-(4-(pyridin-4-yl)phenyl)pyrimidin-4-amine] | 100 | 132 | 100 | 407 | 1960 |  |  |

The next lines start with results.

| inhibition at 3 µM [1] [%] | IC50 [1, 4] [nM] | inhibition at 3 µM [2] [%] | IC50 [2, 4] [nM] | IC50 ([3]; ppMlc (T18/S19)) [nM] | Structure (SMILES) | inhibition at 10 µM ([3]; 10 μM compound) [%] | other results |
| --- | --- | --- | --- | --- | --- | --- | --- |
| 100 | > 1000 | 100 | > 1000 | 8170 | CC(C)C1CCN(c2nccc(Nc3ccc4[nH]ncc4c3)n2)CCN1 (stereo not drawn) [Example 61, N-(2-(5-isopropyl-1,4-diazepan-1-yl)pyrimidin-4-yl)-1H-indazol-5-amine] |  |  |
| 100 | 179 | 100 | 177 | 1300 | CCC1CN(c2nccc(Nc3ccc4[nH]ncc4c3)n2)CCCN1 (stereo not drawn) [Example 62, N-(2-(3-ethyl-1,4-diazepan-1-yl)pyrimidin-4-yl)-1H-indazol-5-amine] |  |  |
| 100 | > 1000 | 100 | > 1000 | 25100 | c1ccc(C2CCN(c3nccc(Nc4ccc5[nH]ncc5c4)n3)CCN2)cc1 (stereo not drawn) [Example 63, N-(2-(5-phenyl-1,4-diazepan-1-yl)pyrimidin-4-yl)-1H-indazol-5-amine] |  |  |
|  | 98 |  | 353 | 1980 | CC(C)C1CN(c2nccc(Nc3ccc4[nH]ncc4c3)n2)CCCN1 (stereo not drawn) [Example 65, N-(2-(3-isopropyl-1,4-diazepan-1-yl)pyrimidin-4-yl)-1H-indazol-5-amine] | 47.8 |  |
| 88.4 |  | 88.3 |  |  | c1cc(Nc2ccc3[nH]ncc3c2)nc(N2CCC3(CCNCC3)C2)n1 [Example 202, N-(2-(2,8-diazaspiro[4.5]decan-2-yl)pyrimidin-4-yl)-1H-indazol-5-amine] | 13.8 |  |
| 89.1 | 46 | 98 | 57 | 561 | CC1CN(c2nccc(Nc3ccc4[nH]ncc4c3)n2)CCCN1 (stereo not drawn) [Example 203, N-(2-(3-methyl-1,4-diazepan-1-yl)pyrimidin-4-yl)-1H-indazol-5-amine] | 63.5 |  |
| 80.9 |  | 98.3 | 98 | 532 | CC1CN(c2nccc(Nc3ccc4[nH]ncc4c3)n2)CCN1 (stereo not drawn) [Example 225, N-(2-(3-methylpiperazin-1-yl)pyrimidin-4-yl)-1H-indazol-5-amine] | 78 |  |
| 100 | > 1000 | 100 | > 1000 | 6350 | CC1CCN(c2nc(Nc3ccc(-c4ccncc4)cc3)c3ccccc3n2)CCN1 (stereo not drawn) [Example 239, 2-(5-methyl-1,4-diazepan-1-yl)-N-(4-(pyridin-4-yl)phenyl)quinazolin-4-amine] |  |  |
| 100 | > 1000 | 100 | > 1000 | 8220 | Cc1cc(Nc2ccc(-c3ccncc3)cc2)nc(N2CCNC(C)CC2)n1 (stereo not drawn) [Example 245, 6-methyl-2-(5-methyl-1,4-diazepan-1-yl)-N-(4-(pyridin-4-yl)phenyl)pyrimidin-4-amine] |  |  |
| 100 | 36 | 100 | 43.9 | 968 | CCC1CN(c2nccc(Nc3ccc(-c4ccncc4)cc3)n2)CCCN1 (stereo not drawn) [Example 248, 2-(3-ethyl-1,4-diazepan-1-yl)-N-(4-(pyridin-4-yl)phenyl)pyrimidin-4-amine] |  |  |
